# Literature values as cited in patent US20090099154A1, “Pharmaceutical Sustained Release Compositions and Processes Thereof” (PANACEA BIOTEC LTD., priority 2005, published 2009).
# What was measured:
# [1] = tested on: HSV-1-infected cells; settings: HSV-1-infected cells cultured in vitro
# [2] = tested on: HSV-2-infected cells; settings: HSV-2-infected cells cultured in vitro
# [3] = tested on: VZV-infected cells; settings: VZV-infected cells cultured in vitro
substance,measurement,setting,value
Penciclovir triphosphate,intracellular half-life,[1],10 h
same,intracellular half-life,[2],20 h
same,intracellular half-life,[3],7 h
